Test results taken from patent US9144594B2, “Cathepsin L mediated diseases and associated methods and products” (University of Miami, priority 2005, dated 2015).

Columns and labels:
[1] = system: dynamin-dynamin interactions; experiment: FLIM analysis of dynamin-dynamin interactions in live COS cells; assay type: cell-based; settings: for dynamin-dynamin interactions measured by FLIM, in words: COS cells pre-treated; for Mean Lifetime (γ1) ps: Table 3
Excerpt: FLIM is based on the fluorescence resonance energy transfer (FRET) between the donor and acceptor that shortens the lifetime of the donor if the acceptor distance is within ≈100 Å (10 nm). […] To this end, dynamin was tagged with either ECFP or EYFP on its N- and C-termini. Fusion proteins were expressed in COS cells, because these cells are flattened and have minimal background autofluorescence, which allows clear visualization of cells by wide-field microscopy.
The observed decrease in fluorescence lifetime of CFP-dynamin in cells expressing EYFP-dynamin could result from interactions between dynamin monomers within tetramers/dimers, or from interactions between assembled tetramers/dimmers into higher order structures (FIG. 8C). To distinguish these two possibilities, we used FLIM to examine dynI690K. […] The longer average lifetimes of dynI690K than dynwt argue strongly that the assay detects higher order dynamin self-assembly and not tetramer formation.

[2] = system: dynamin-dynamin interactions; experiment: FLIM analysis of dynamin-dynamin interactions (self-assembly) in podocytes; assay type: cell-based, mouse; settings: for Mean Lifetime (γ1): Table 4, donor GTPase-a488, acceptor Hudy1-a568, in ps; for dynamin self-assembly by FLIM, in words: podocytes pretreated
Procedure: In one embodiment the cell-based assay to monitor dynamin-dynamin interactions is performed on a cultured mouse podocyte cell line and the readout of dynamin self-assembly using fluorescence lifetime imaging microscopy (FLIM). FLIM is based on the fluorescence resonance energy transfer (FRET) between the donor and acceptor that shortens the lifetime of the donor if the acceptor distance is within ≈100 Å (10 nm). […] The assay is based on overexpressing dynamin in podocytes, and subsequently staining fixed cells with monoclonal anti-dynamin antibodies that have been conjugated with donor or acceptor florophores. In one embodiment of the invention, Alexa-488 is used as the donor florophore and Alexa-568 is used as the acceptor florophore. In yet another embodiment the donor florophore is dynamin conjugated enhanced-cyan fluorescence protein (ECFP) and the acceptor is dynamin conjugated enhanced yellow-fluorescence protein (EYFP). It will be appreciated by the person of ordinary skill in the art that numerous combinations of FRET donor and acceptors can be used, which are readily available and known. In one embodiment, the FLIM assay is carried out in COS cells and the donor can be selected from the list consisting of: ECFP-WT, ECFP-1690K, ECFP-K44A, ECFP-K694A, and the -acceptor can be selected from the list consisting of: EYFP, EYFP-WT, EYFP-K44A, EYFP-1690K, EYFP-K694A. In yet another embodiment the FLIM assay is performed in podocytes and the donor is GTPase-Alexa488 and the acceptor is selected from the list consisting of: DAM-Alexa568, GTPase-Alexa568, and Hudyl-Alexa568. Cells are stained by mixing both donor and acceptor florophores in equal amounts, and examining the spatially-restricted lifetime shortening in cells detects the localization of dynamin-dynamin interactions in cells. Since dynamin-dynamin interactions are vital for the function of the podocyte, it will be appreciated by the person of ordinary skill in the art that this assay can now be used to screen peptides, small molecules or drugs which can affect these molecular interactions. For example such molecules are cytocholasin D, jasplakinolide, colchisine, dynK44A, dynK694A, dynWT, dynI690K, dynR725A (SEQ ID NO.4), dynL356Q, G358V, (SEQ ID NO.3) any combination thereof, etc.
In order to test the hypothesis that self-assembly of dynamin was protecting its cathepsin L processing in cultured podocytes, dynamin self-assembly in live cells was examined using fluorescence lifetime imaging microscopy (FLIM). FLIM is based on the fluorescence resonance energy transfer (FRET) between the donor and the acceptor that shortens the lifetime of the donor if the acceptor distance is within ≈100 Å (10 nm). […] A FLIM-assay was developed that specifically detects dynamin self-assembly into the higher order structures in podocytes. The assay is based on overexpressing dynamin in podocytes, and subsequently staining fixed cells with monoclonal anti-dynamin antibodies that have been conjugated with either Alexa-488 (donor florophore) or Alexa-568 (acceptor florophore). Cells are stained by mixing both florophores in equal amounts, and examining lifetime of Alexa-488. […] Importantly, FRET only occurred in the vicinity of the membrane. […] Thus, both dominant activating mutants, dynK694A and dynR725A, are impaired for assembly into a supramolecular structures in podocytes under normal conditions. […] Loss of FRET measured FLIM correlates with the loss of p40 proteolytic fragment in cultured podocytes. And presence of p40 in cells expressing dynR725A under normal conditions correlates with the lack of dynR725A assembly detected by FLIM. The opposite is true for the dynWT; lack of p40 under control conditions when FLIM is present, and appearance of the p40 upon LPS treatment with no measurable FRET. […] Finally, proteolytic processing of dynamin after LPS treatment is also observed in vivo. […]

[3] = donor CFP-WT, acceptor YFP-WT, cells treated with the substance

Row | Molecule | dynamin-dynamin interactions measured by FLIM, in words [1] | Mean Lifetime (γ1) ps [1, 3] [ps] | also measured
1 | b-methyl-cyclodextrin [MBCD] | occurred unchanged | 916 ± 427 | –
2 | COc1cc2c(c(OC)c1OC)-c1ccc(OC)c(=O)cc1[C@@H](NC(C)=O)CC2 [Colchisine, reference compound] | – | – | Mean Lifetime (γ1) [2]: 2295 ± 98
3 | COC(=O)Nc1nc2ccc(C(=O)c3cccs3)cc2[nH]1 [nocodazole] | had no effect on dynamin oligomerization | – | –
4 | C=C1[C@@H](C)[C@H]2[C@H](Cc3ccccc3)NC(=O)[C@]23[C@H](OC(C)=O)/C=C/[C@@](C)(O)C(=O)[C@@H](C)C/C=C/[C@H]3[C@@H]1O [Cyto. D, cytochalasin D] | significantly promoted dynamin-dynamin interactions | 510 ± 29 | dynamin self-assembly by FLIM, in words [2]: decrease in the lifetime of alexa 488 is detected through the cytoplasm
5 | C/C1=C\[C@H](C)C[C@H](C)OC(=O)C[C@H](c2ccc(O)cc2)NC(=O)[C@@H](Cc2c(Br)[nH]c3ccccc23)N(C)C(=O)[C@H](C)NC(=O)[C@@H](C)C1 [Jaspl., jasplakinolide, reference compound] | had no effect | 845 ± 263 | Mean Lifetime (γ1) [2]: 2254 ± 58; dynamin self-assembly by FLIM, in words [2]: did not effect dynamin self-assembly at the membrane
6 | CFP-1690K: dynI690K tagged with ECFP (protein, left off: large carriers, dynI690K tagged with ECFP) MGNRGMEDLIPLVNRLQDAFSAIGQNADLDLPQIAVVGGQSAGKSSVLENFVGRDFLPRGSGIVTRRPLVLQLVNATTEYAEFLHCKGKKFTDFEEVRLEIEAETDRVTGTNKGISPVPINLRVYSPHVLNLTLVDLPGMTKVPVGDQPPDIEFQIRDMLMQFVTKENCLILAVSPANSDLANSDALKVAKEVDPQGQRTIGVITKLDLMDEGTDARDVLENKLLPLRRGYIGVVNRSQKDIDGKKDITAALAAERKFFLSHPSYRHLADRMGTPYLQKVLNQQLTNHIRDTLPGLRNKLQSQLLSIEKEVEEYKNFRPDDPARKTKALLQMVQQFAVDFEKRIEGSGDQIDTYELSGGARINRIFHERFPFELVKMEFDEKELRREISYAIKNIHGIRTGLFTPDMAFETIVKKQVKKIREPCLKCVDMVISELISTVRQCTKKLQQYPRLREEMERIVTTHIREREGRTKEQVMLLIDIELAYMNTNHEDFIGFANAQQRSNQMNKKKTSGNQDEILVIRKGWLTINNIGIMKGGSKEYWFVLTAENLSWYKDDEEKEKKYMLSVDNLKLRDVEKGFMSSKHIFALFNTEQRNVYKDYRQLELACETQEEVDSWKASFLRAGVYPERVGDKEKASETEENGSDSFMHSMDPQLERQVETIRNLVDSYMAIVNKTVRDLMPKTIMHLMKNNTKEFIFSELLANLYSCGDQNTLMEESAEQAQRRDEMLRMYHALKEALSIIGDINTTTVSTPMPPPVDDSWLQVQSVPAGRRSPTSSPTPQRRAPAVPPARPGSRGPAPGPPPAGSALGGAPPVPSRPGASPDPFGPPPQVPSRPNRAPPGVPSRSGQASPSRPESPRPPFDL | – | – | Mean Lifetime (γ1) ps ([1]; acceptor YFP not fused to dynamin): 1838 ± 309 ps; Mean Lifetime (γ1) ps ([1]; donor alone, no acceptor): 2292 ± 297 ps
7 | CFP-K44A: dynK44A tagged with ECFP (protein, left off: large carriers, dynK44A tagged with ECFP) MGNRGMEDLIPLVNRLQDAFSAIGQNADLDLPQIAVVGGQSAGASSVLENFVGRDFLPRGSGIVTRRPLVLQLVNATTEYAEFLHCKGKKFTDFEEVRLEIEAETDRVTGTNKGISPVPINLRVYSPHVLNLTLVDLPGMTKVPVGDQPPDIEFQIRDMLMQFVTKENCLILAVSPANSDLANSDALKVAKEVDPQGQRTIGVITKLDLMDEGTDARDVLENKLLPLRRGYIGVVNRSQKDIDGKKDITAALAAERKFFLSHPSYRHLADRMGTPYLQKVLNQQLTNHIRDTLPGLRNKLQSQLLSIEKEVEEYKNFRPDDPARKTKALLQMVQQFAVDFEKRIEGSGDQIDTYELSGGARINRIFHERFPFELVKMEFDEKELRREISYAIKNIHGIRTGLFTPDMAFETIVKKQVKKIREPCLKCVDMVISELISTVRQCTKKLQQYPRLREEMERIVTTHIREREGRTKEQVMLLIDIELAYMNTNHEDFIGFANAQQRSNQMNKKKTSGNQDEILVIRKGWLTINNIGIMKGGSKEYWFVLTAENLSWYKDDEEKEKKYMLSVDNLKLRDVEKGFMSSKHIFALFNTEQRNVYKDYRQLELACETQEEVDSWKASFLRAGVYPERVGDKEKASETEENGSDSFMHSMDPQLERQVETIRNLVDSYMAIVNKTVRDLMPKTIMHLMINNTKEFIFSELLANLYSCGDQNTLMEESAEQAQRRDEMLRMYHALKEALSIIGDINTTTVSTPMPPPVDDSWLQVQSVPAGRRSPTSSPTPQRRAPAVPPARPGSRGPAPGPPPAGSALGGAPPVPSRPGASPDPFGPPPQVPSRPNRAPPGVPSRSGQASPSRPESPRPPFDL | – | – | Mean Lifetime (γ1) ps ([1]; acceptor YFP fused to the same dynamin variant): 1858 ± 187 ps
